In brackets after ≈: the same amount, converted by molar mass.

As a reminder, the kinetic solubility is solubility judged after dilution from a stock solution rather than from solid.

For the data set the following is noted: buffer; pH 7.4; 200.0 µM.
Take `COc1ccc(NC(=O)C23CC4CC(CC(Cl)(C4)C2)C3)cc1S(=O)(=O)N1CCOCC1`: the kinetic solubility came to 0.0033 mg/mL (≈ 7.04 µM).
Then `O=C(NS(=O)(=O)Nc1ccccn1)c1c[nH]c2ccccc12`, with > 0.0474 mg/mL.
Turning to `CC(CCc1ccccc1)NC(=O)CCC(=O)N1CCC(C(=O)O)CC1` (configuration not stated), the kinetic solubility was > 0.0541 mg/mL.
Then `Cc1ccc(NC(=O)Nc2cnccn2)cc1C`, with 0.0095 mg/mL (≈ 39.2 µM); and `CC1CCCN(C(=O)C2CCN(C(=O)Nc3ccccc3)CC2)C1` (configuration not stated), with > 0.0494 mg/mL; and `COc1ccc(C(C)NC(=O)CCc2ccccc2)cc1` (configuration not stated), with 0.0408 mg/mL (≈ 144 µM).
Next, `Cc1csc(SCC(=O)NC(C)c2ccccc2)n1` (configuration not stated): > 0.0439 mg/mL; `CC(C)(C)c1cc(C(=O)N2CCc3ccccc3C2)ccn1`: > 0.0442 mg/mL; `Cc1ccc(-c2nc3ncccc3o2)cc1NC(=O)c1ccccc1`: 0.0003 mg/mL (≈ 0.911 µM).
Next, `CC1CCN(C(=O)COc2ncnc3ccccc23)CC1`: 0.0357 mg/mL (≈ 125 µM); `Cc1cc(=O)n(Cc2ccc(OC(C)C)cc2)c(=S)[nH]1`: 0.0138 mg/mL (≈ 47.5 µM); `COc1ccc(OC)c2c1sc(=NC(=O)C1CC1)n2C`: 0.0009 mg/mL (≈ 3.08 µM).
Consider `O=C(NC1CC1)c1nc(Cn2ccc([N+](=O)[O-])n2)no1`, for which the solubility (kinetic) was > 0.0417 mg/mL.
With `CS(=O)(=O)N1CCCC(C(=O)Nc2cccc(F)c2)C1` (configuration not stated), the kinetic solubility is > 0.0451 mg/mL.
As for `COc1ccc(NC(=O)CS(=O)c2ccccc2Cl)cc1` (configuration not stated), the solubility (kinetic) is > 0.0486 mg/mL.
Next, `Cc1cccc(C(=O)OC(C)CN2CCCC2)c1.Cl` (configuration not stated): > 0.0426 mg/mL; `CC(Nc1nc(-c2ccccc2F)nc2ccccc12)c1ccccc1` (configuration not stated): 0.0032 mg/mL (≈ 9.32 µM).
In turn, `CCOC(=O)Cc1csc(NC(=O)Nc2ccc(C)cc2)n1` had a kinetic solubility of 0.0038 mg/mL (≈ 11.9 µM). This solubility kinetic and that of the compound before are within 1.5-fold of each other.
Take `O=C(NCc1ccccc1Cl)c1ccncc1`: the solubility (kinetic) is > 0.037 mg/mL.
Regarding `COc1cc(NC(=S)Nc2ccc3c(c2)OCCO3)cc(OC)c1OC`, the kinetic solubility is > 0.0565 mg/mL.
Next, `CC(=O)c1c(C)oc2ccc(NS(=O)(=O)c3ccccc3)cc12`: < 0.0007 mg/mL; `COCc1c(C(=O)OCC(=O)Nc2ccc(OC(F)F)cc2)oc2ccccc12`: 0.0134 mg/mL (≈ 33.1 µM).
Next, `COCCN1CN=C(NS(=O)(=O)c2ccc(C)cc2)NC1`: > 0.0469 mg/mL; `CN(C)Cc1c(O)ccc2occ(C(=O)c3ccc(F)cc3)c12`: > 0.047 mg/mL.
Next, `COC(=O)c1ccc(CSC(=N)N)o1`: 0.0276 mg/mL (≈ 129 µM).
As to `Cc1nc(-c2noc(-c3cccc(Cl)c3)n2)c(C(F)(F)F)o1`, the solubility (kinetic) is < 0.0002 mg/mL.
Then `COc1ccccc1NC(=O)COC(=O)C1CC2CCCC(C1)C2=O` (configuration not stated), with > 0.0518 mg/mL.
Then `N#Cc1ccc(CSc2ncccn2)cc1`, with > 0.0341 mg/mL.
`CCC(C(=O)Nc1cccnc1Cl)c1ccccc1` (configuration not stated): the kinetic solubility was 0.0302 mg/mL (≈ 110 µM).
Next, `COc1ccccc1Nc1nc(C)cc(C)n1`: 0.0221 mg/mL (≈ 96.4 µM); `Cc1nc(Cc2nnc(SCC(=O)N3CC(=O)Nc4ccccc43)o2)cs1`: > 0.0602 mg/mL; `O=C1CN(S(=O)(=O)c2cc(Cl)ccc2Cl)c2ccccc2N1`: 0.0378 mg/mL (≈ 106 µM).
Take `Cc1cc2c(cc1S(=O)(=O)N(C)c1ccccc1)n(C)c(=O)n2C`: the solubility (kinetic) was > 0.0518 mg/mL.
In the case of `CSc1nc(=S)n(-c2ccc([N+](=O)[O-])cc2)c(C)c1C(C)=O`, the kinetic solubility was determined as 0.0482 mg/mL (≈ 144 µM).
`Cc1nc(-c2ccc([N+](=O)[O-])cc2)nc2[nH]ccc(=O)c12` showed a solubility (kinetic) of 0.0009 mg/mL (≈ 3.19 µM).
Compound `Cc1csc(Nc2ccccc2)[n+]1C.[Br-]` had a solubility (kinetic) of 0.0302 mg/mL.
As for `O=C(CNC(=O)c1cccc(F)c1)N/N=C/c1cccnc1`, the solubility (kinetic) is > 0.045 mg/mL.
The compound `Cn1c(-c2nonc2N)nc2ccccc21` registered a solubility (kinetic) of 0.0043 mg/mL (≈ 20 µM).
Then `C=C(C)Cn1cnc2c(oc3nc4c(cc32)CCCC4)c1=O`, with 0.0025 mg/mL (≈ 8.46 µM).
In the case of `Cc1ccc(C)c(NC(=O)CN(C)C(=O)C2CCCC2)c1`, the kinetic solubility is > 0.0433 mg/mL.
Next, `O=C(Cn1cc(C(=O)c2ccccc2F)c2ccccc21)NC1CC1`: 0.002 mg/mL (≈ 5.95 µM); `O=C(Nc1cccc(Cl)c1N1CCOCC1)c1ccco1`: 0.0057 mg/mL (≈ 18.6 µM).
Then `CCCn1c(=O)c(C(=O)Nc2ccccc2C)c(O)c2ccccc21`, with < 0.0004 mg/mL; and `COC(=O)c1ccccc1NC(=O)CN1CCc2ccccc2C1`, with 0.0107 mg/mL (≈ 33 µM).
Then `CCOC(=O)C1=C(C)NC(C)=C(C(=O)OCC)C1C(=O)OCC(=O)N(C)Cc1ccccc1`, with 0.0028 mg/mL (≈ 6.11 µM).
Turning to `CC(=O)Nc1ccccc1C(=O)OCc1ccccc1F`, the kinetic solubility was determined as 0.032 mg/mL (≈ 111 µM).
Next, `Cc1ccc(NC(=O)c2ccc(Cl)nc2)cc1S(=O)(=O)N1CCOCC1`: 0.0124 mg/mL (≈ 31.3 µM); `CCOC(=O)COc1nc(-c2ccc(Cl)cc2)cc(-c2ccco2)c1C#N`: < 0.0004 mg/mL; `C#CC[N+]1(C)C2CCC1CC(O)C2.[Br-]` (configuration not stated): 0.0337 mg/mL.
Take `COc1cc(NC(=O)CSCc2ccccc2)c(C(=O)O)cc1OC`: the kinetic solubility came out at 0.0526 mg/mL (≈ 146 µM). This solubility kinetic is about 1.6-fold higher than that of the compound before.
Next, `CC1CC(C)CN(C(=O)COc2ccc([N+](=O)[O-])cc2Cl)C1` (configuration not stated): 0.011 mg/mL (≈ 33.7 µM); `COc1ccccc1NC(=O)CNC(c1ccccc1)c1ccccc1`: 0.0012 mg/mL (≈ 3.46 µM); `CSc1ccccc1C(=O)OCC(=O)N1CCCCCC1`: > 0.0461 mg/mL.
Consider `COc1cc(CN2CCc3c([nH]c4ccccc34)C2)cc(OC)c1`, for which the solubility (kinetic) stood at 0.026 mg/mL (≈ 80.6 µM).
Then `CN(CCC#N)C(=O)CC(Cc1ccccc1)C1CCOC(C)(C)C1` (configuration not stated), with > 0.0514 mg/mL; and `CCC1(Cc2ccccc2)NC(=O)c2ccccc2O1` (configuration not stated), with 0.0365 mg/mL (≈ 137 µM); and `CN1C(=O)C(CCC(=O)O)NC1=S` (configuration not stated), with 0.0282 mg/mL (≈ 139 µM).
The compound `O=c1c2[nH]cnc2n(-c2ccccc2)c(=O)n1Cc1ccccc1` gave a solubility (kinetic) of 0.0351 mg/mL (≈ 110 µM).
Then `CN(C)[C@@H]1C(=O)C(C(N)=O)=C(O)[C@@]2(O)C(=O)C3=C(O)c4c(O)cccc4[C@@](C)(O)[C@H]3[C@H](O)[C@@H]12`, with 0.047 mg/mL (≈ 102 µM); and `CCCCCN1C=CC=C/C1=C\C=C(C#N)C#N`, with 0.0069 mg/mL (≈ 28.8 µM); and `Cc1ccccc1NC(=O)COC(=O)c1cccnc1`, with > 0.0405 mg/mL.
Next, `O=C(Cc1ccc([N+](=O)[O-])cc1)Nc1ccc2c(c1)CCC2`: 0.0006 mg/mL (≈ 2.02 µM); `O=c1oc(-c2ccccc2F)nc2scc(-c3ccccc3)c12`: < 0.0007 mg/mL.
For `O=C1CCCC(=O)N1c1ccc(NCCOCCO)c([N+](=O)[O-])c1`, the solubility (kinetic) is > 0.0506 mg/mL.
Then `CCOC(=O)N1CCC(NC(=O)Cc2ccccc2)CC1`, with > 0.0436 mg/mL.
For the compound `Cc1ccc(NC(=O)CN(C)C(=O)/C=C/c2cccc(F)c2)cc1`, the kinetic solubility amounted to 0.0022 mg/mL (≈ 6.74 µM).
`Cc1cc(N2CCOCC2)n2cc(-c3ccccc3)nc2n1` had a kinetic solubility of 0.0123 mg/mL (≈ 41.8 µM).
The compound `O=C(NCCC1=CCCCC1)C1CCN(S(=O)(=O)N2CCCC2)CC1` gave a kinetic solubility of 0.0507 mg/mL (≈ 137 µM).
Next, `CC(C)CC(NC(=O)C1CCCCC1)C(=O)NC(C)c1ccccc1` (configuration not stated): 0.0244 mg/mL (≈ 70.8 µM).
Regarding `COc1cc(CC(=O)NCCCc2ccccc2)cc(OC)c1OC`, the solubility (kinetic) is > 0.0515 mg/mL.
Then `COc1ccccc1OCC(=O)Nc1nc(C)c(C)s1`, with > 0.0439 mg/mL; and `OCc1nc2ccccc2n1CCc1ccccc1`, with 0.0361 mg/mL (≈ 143 µM); and `CCN(C(=O)CSc1nccc(=O)[nH]1)c1cccc2ccccc12`, with > 0.0509 mg/mL.
Next, `O=C(Nc1nccs1)c1cccc2ccccc12`: 0.0019 mg/mL (≈ 7.47 µM); `O=C(NCCc1ccc(Cl)cc1)c1cnccn1`: > 0.0393 mg/mL; `O=C(c1cccc(S(=O)(=O)NCc2ccccc2)c1)N1CCCC1`: > 0.0517 mg/mL.
Then `CCc1c(O)nc(SCC(=O)N(CC)CC)[nH]c1=O`, with > 0.0428 mg/mL.
Turning to `CC(=O)c1cccc(Oc2ncccn2)c1`, the kinetic solubility is > 0.0321 mg/mL.
Then `O=C1Nc2cc(C(F)(F)F)ccc2N2CCCCC12` (configuration not stated), with 0.0071 mg/mL (≈ 26.3 µM).
Then `Cc1cccc(C(=O)Nc2ccc3ccccc3c2)c1`, with < 0.0006 mg/mL; and `Cc1ccc(S(=O)(=O)NCCN2CCOCC2)c(C)c1.Cl`, with > 0.0502 mg/mL; and `Cc1cc(OCC(=O)N2CCC(C(=O)O)CC2)c2c(C)cc(=O)oc2c1`, with > 0.0539 mg/mL.
Next, `OC(COc1ccc2c(c1)OCO2)CN1CCCCC1` (configuration not stated): 0.0325 mg/mL (≈ 116 µM); `COc1ccc2c(c1)C(NC(C)=O)C(=O)N2CCc1ccccc1` (configuration not stated): 0.0466 mg/mL (≈ 144 µM).
`O=C(C[n+]1ccccc1)N1CCCc2ccccc21.[Cl-]`: the solubility (kinetic) was > 0.0433 mg/mL.
`S=c1[nH]c2ccc(Cc3ccc4[nH]c(=S)[nH]c4c3)cc2[nH]1` registered a solubility (kinetic) of 0.0017 mg/mL (≈ 5.44 µM).
Next, `COC(=O)Nc1cc(C(=O)c2ccc(Cl)cc2Cl)c[nH]1`: 0.0436 mg/mL (≈ 139 µM); `CCN(CC)/C(=N\S(=O)(=O)c1ccc(F)cc1)c1ccccc1`: > 0.0502 mg/mL.
`O=C(O)c1cccc(-n2c(O)c(C=C3N=c4ccccc4=N3)sc2=S)c1`: the solubility (kinetic) was > 0.0572 mg/mL.
Then `CC1CCCC(NC(=O)CCC(=O)c2ccc(F)cc2)C1C` (configuration not stated), with 0.0338 mg/mL (≈ 111 µM); and `O=C(NCC1CCCO1)c1cc2ccccc2cc1O` (configuration not stated), with > 0.0407 mg/mL; and `O=C(c1cc(COc2ccc(F)cc2F)on1)N1CCOCC1`, with > 0.0486 mg/mL.
Then `COC(=O)c1ccc(COc2cc([N+](=O)[O-])cc3cccnc23)o1`, with 0.0033 mg/mL (≈ 10.1 µM).
Next, `COc1ccccc1CC(=O)Nc1ccc(F)cc1F`: > 0.0416 mg/mL.
For `O=C(CCC(=O)N1CCCC1)Nc1ccc([N+](=O)[O-])cc1`, the kinetic solubility stood at 0.0413 mg/mL (≈ 142 µM).
As for `CCN(CC)CCNC(=O)Cn1ncc2ccccc2c1=O`, the kinetic solubility was > 0.0454 mg/mL.
Then `CC(C)NC(=O)c1cc2c(=O)n3ccccc3nc2s1`, with < 0.0002 mg/mL.
Turning to `CC(C)c1onc(C(=O)Nc2ccc3c(c2)OCO3)c1[N+](=O)[O-]`, the solubility (kinetic) is > 0.0479 mg/mL.
Then `Cn1c(/C=C/c2ccc(Cl)cc2)nc2ccccc2c1=O`, with < 0.0003 mg/mL; and `COc1ccccc1CNC(=O)c1cc(=O)c2ccccc2o1`, with 0.0108 mg/mL (≈ 34.9 µM); and `COc1ccc(CCNC(=S)NC(=O)c2ccccc2)cc1C`, with 0.0008 mg/mL (≈ 2.44 µM).
Then `O=C(COC(=O)CC1CC2CCC1C2)NCc1ccccc1` (configuration not stated), with > 0.0452 mg/mL.

Source of the values: PubChem BioAssay AID1996.
